Patent US4625016A, “Collagen inhibiting compositions and processes for manufacturing and using same” (University of Medicine and Dentistry of New Jersey, priority 1983, dated 1986)

Assays:
[1] = tested on: KB cells; settings: as disclosed in 266 Nature 63 (1977); cited from earlier work
[2] = tested on: normal human skin fibroblasts; assay: Attachment and growth of human skin fibroblasts in plastic culture flasks (assay of collagen synthesis); format: cell-based
Description: The principle of the test system is that when collagen-producing cells, such as normal skin fibroblasts are introduced into a plastic flask containing a nutrient medium, the cells attach to the surface of the flask and grow. However, firm attachment of normal fibroblasts to the surface of the flask requires that the cells first synthesize a "pad" comprised of collagen fibers and several other materials through which the collagen producing cells attach to the plastic surface. If synthesis of normal collagen fibers is prevented, the collagen-producing cells, such as the normal skin fibroblasts, will not attach and therefore will not grow. […] The manner in which cis-4-hydroxy-L-proline produces these effects has been disclosed in 336 Biochimica et Biophysica Acta 234, (1974); 174 Archives of Biochemistry and Biophysics 381 (1976); 226 Nature 63 (1977); and 272 Nature 622 (1978).
None of the three polymeric compositions are soluble in water and are consequently dissolved in 50% acetic acid and water. The solution is placed dropwise on a microscopic coverslip and the solvent evaporated with warm air from a hair dryer. The coverslip, coated with the composition, is then placed in a plastic culture flask (75 cm^2; Falcon). From 5×10^5 to 10.5×10^5 normal human fibroblasts in 2 ml of cell culture medium are added to the flask. The flask is incubated at 37° C. in 5% carbon dioxide and 95% air for 3 to 5 days, and the number of cells in the flask counted. Control sample contained microscopic coverslips treated with an equal volume of solvent and air-dried.

For `O=C(O)[C@@H]1C[C@H](O)CN1` [cis-4-Hydroxy-L-proline, cis-4-hydroxy-L-proline], the “Growth of cells which do not produce collagen (in words)” value [1] is given as “not inhibited”, the “Cells per flask, Final” value ([2]; Expt. 1, dosage level 250 μg/ml, initial 5.0 × 10^5, 3 to 5 days, None: 67) is given as < 1 × 10^5 and the “Cells per flask, Final” value ([2]; Expt. 2, dosage level 100 μg/ml, initial 10.3 × 10^5, None: 98) is given as 2.2 × 10^5. The “Cells per flask, Final” value ([2]; Expt. 3, dosage level 50 μg/ml, initial 7.0 × 10^5, None: 56) was 12 × 10^5, the “Cells per flask, Final” value ([2]; Expt. 3, dosage level 150 μg/ml, initial 7.0 × 10^5, None: 56) was 1.3 × 10^5 and the “Attachment and growth of normal fibroblasts (in words)” value ([2]; no dose stated) was “prevents attachment and growth”.
